Data published in patent US20230285383A1, “TREATMENT OF SKIN DISEASES” (Ichilov Tech Ltd., priority 2020, published 2023).

Experiments:
SAMD9 [1] = experiment: SAMD9 expression by qRT-PCR in HeLa cells; assay type: cell-based, human
Procedure: (§1) HeLa cells were cultured in DMEM 4.5 g/l glucose medium containing 10% FCS, 1% L-glutamine and 1% penicillin and streptomycin (Biological Industries) and grown at 37° C. and 5% CO2.
(§2) Of note, when cells were incubated with CPT and CPT-11, they were grown in the appropriate medium with 0.1% FCS only.
(§3) RNA was extracted from cell cultures using an RNA extraction kit (Roche Diagnostics, Mahheim, Germany). cDNA was synthesized from 500 ng of total RNA using the Verso cDNA kit (Thermo Fisher Scientific, Waltham, Mass., USA) or qScript kit (Quanta Biosciences, Gaithersburg, Md., USA). cDNA PCR amplification was carried out using the Fast SYBR Green Master Mix in a StepOnePlus™ Real-Time PCR System (Applied Biosystems, Foster City, Calif., USA) with gene-specific intron-crossing oligonucleotide pairs listed in Table 1 (below). For quantification, standard curves were obtained using serially diluted cDNA amplified in the same qRT-PCR run. The melting temperature (Tm) of the amplified products was measured to confirm the specificity of the reaction conditions. […] Each sample was analyzed in triplicate. mRNA expression level for target gene was normalized to GAPDH. The results are based the amount of target, normalized to an endogenous reference (IACTB) and relative to a calibrator, as calculated by 2-ΔΔCT. […] The expression levels of target genes were expressed as mRNA relative units. […]

human psoriatic skin = experiment: Chimeric mice carrying human psoriatic skin; assay type: in vivo, SCID mice; conditions: i.p., 10 days; CPT 3 mg/kg five times a week; CPT-11 30 or 50 mg/kg three times a week
Excerpt: (§4) Chimeric mice carrying human psoriatic skin were generated using SCID mice, 2-3 months of age. Animals were maintained in a pathogen-free animal facility. A psoriasis-like phenotype was induced in normal human skin grafted onto the mice by intradermal injection of natural killer/T cells derived from psoriatic patients as previously described [Gilhar A et al. J Invest Dermatol (2011) 131: 118-124].
(§5) Formaldehyde-fixed 5-μm paraffin-embedded sections from skin biopsies were deparaffinized and treated with 3% H2O2 in methanol for 15 minutes at room temperature, warmed in a microwave oven in citrate buffer in a pressure cooker for 25 minutes, and stained with a monoclonal anti-Ki67 antibody (Thermo Scientific) for 1 hour at room temperature. Following 3 washings (10 minutes each) with phosphate-buffered saline (PBS), the antibodies were imaged using the ABC technique (Zymed Laboratories, South San Francisco, Calif.) and the slides were counterstained with hematoxylin.
(§6) Epidermal thickness was defined as the distance between the granular layer and the basement membrane and was measured at 10 randomly selected locations for each biopsy using NIS-Elements BR 3.2 software (Nikon, NY USA). An image was taken and was manually measured in the software by selecting an upper and lower border, as defined above. The distance was measured in microns.
To assess the potential therapeutic role of the compounds of some embodiments of the invention, the two compounds were administered systemically (i.p) to chimeric mice carrying human psoriatic skin.
as §4, with “In short,” for “Chimeric mice carrying human psoriatic skin were generated using”, “age,” for “age. Animals”
Two weeks after natural killer/T-cell injection (6 weeks after human skin grafting), mice were injected i.p. five times a week. Five groups of mice were treated as follows: one group of mice was injected five times a week with the vehicle (10% DMSO in […] was used as a vehicle control); a second group of mice was injected five times a week CPT (3 mg/kg); a third group of mice was injected three times a week CPT-11 (50 mg/kg); a fourth group of mice was injected three times a week CPT-11 (30 mg/kg); and a fifth group of mice, was treated with dexamethasone (DEX) cream applied 5 times a week on the graft, as positive control (DEX was expected to attenuate inflammation in this model). Each group included six mice, and the treatment was performed for a total of 10 days. The grafts were harvested from the five groups of mice, paraffin-embedded, stained for hematoxylin and eosin (H&E), analyzed and scored for the average improvement of the clinical and histological psoriasiform phenotype.

[2] = test system: imiquimod-induced psoriasiform dermatitis; experiment: Imiquimod-induced psoriasiform dermatitis in mice; assay type: in vivo, Balb/c mice; conditions: 7.5 mg/Kg i.p., biopsies at day 6, vs vehicle
Procedure: Balb/c mice (Harlan Laboratories Ltd, Jerusalem, Israel), 9 weeks of age, were maintained in a pathogen-free animal facility. Animal care and research protocols had been approved by the institutional committee for animal use. Imiquimod 5% (Perrigo, Israel) was topically applied to the mice on their upper backs.
as §5
as §6, with “microns. […]” for “microns.”

SAMD9 [3] = experiment: SAMD9 expression by qRT-PCR in primary fibroblasts; assay type: cell-based, human
Procedure: Primary fibroblasts were isolated from human adult skin and were grown in High Glucose DMEM, 10% Fetal Bovine Serum, L-glutamine and Pen-Strep. Medium was changed every 2-3 days. Cells were used at passage 2-3.
as §2
RNA was extracted from cell cultures using an RNA extraction kit (Roche Diagnostics, Mahheim, Germany). cDNA was synthesized from 500 ng of total RNA using the Verso cDNA kit (Thermo Fisher Scientific, Waltham, Mass., USA) or qScript kit (Quanta Biosciences, Gaithersburg, Md., USA). cDNA PCR amplification was carried out using the Fast SYBR Green Master Mix in a StepOnePlus™ Real-Time PCR System (Applied Biosystems, Foster City, Calif., USA) with gene-specific intron-crossing oligonucleotide pairs listed in Table 1 (below). For quantification, standard curves were obtained using serially diluted cDNA amplified in the same qRT-PCR run. The melting temperature (Tm) of the amplified products was measured to confirm the specificity of the reaction conditions. […] Each sample was analyzed in triplicate. mRNA expression level for target gene was normalized to GAPDH. The results are based the amount of target, normalized to an endogenous reference (IACTB) and relative to a calibrator, as calculated by 2-ΔΔCT. […]
SAMD9 expression was measured via qRT-PCR, in triplicates. […]

HeLa cells = experiment: RNA sequence analysis of HeLa cells treated with CPT; assay type: cell-based, human; conditions: 10 μM, 48 hours
Procedure: FIG. 10A presents RNA-seq analysis of HeLa cells treated with CPT. HeLa cells were treated with 10 μM CPT or DMSO for 48 hours (three independent experiments). Total RNA was extracted and sent to RNA-seq. Volcano plot represents the number of genes that were differentially expressed. […] P-value for enrichment for genes belongs to a known psoriasis related pathogenic pathways (taken from IPA database) was calculated using hypergeometric distribution (using a background of 24190 genes).
HeLa cells were treated with 10 μM CPT or DMSO for 48 hours (three independent experiments). Total RNA was extracted and sent to RNA-sequencing.
The obtained data is presented in FIGS. 10A-B. FIG. 10A presents a volcano plot that show the number of statistically significant differential gene (DE) as response to CPT treatment. […] In addition, calculation of p-value for enrichment for genes belongs to a known psoriasis related pathogenic pathways (taken from IPA database) using hypergeometric distribution (using a background of 24190 genes). The table in FIG. 10B summarizes the number of genes in each group, the number of differentially expressed genes, the overlap, and the adjusted p-value (after correcting for multiple testing).

SAMD9 [4] = experiment: SAMD9 expression by qRT-PCR in TERC-transformed fibroblasts; assay type: cell-based, human; conditions: 5 μM, 24 hours, relative to DMSO
Procedure: TERC-transformed fibroblasts were transformed with a pBABE-H2AGFP construct containing the human telomerase gene were cultured High Glucose DMEM, 10% FCS, L-glutamine and Pen-Strep (all cell culture regents from Biological Industries, Israel). Medium was changed every 2-3 days. Cells were used at passage 2-3.
as §2
as §3, with “GAPDH.” for “GAPDH. The results are based the amount of target, normalized to an endogenous reference (IACTB) and relative to a calibrator, as calculated by 2-ΔΔCT.”

EGR1 = EGR1 expression by qRT-PCR in Hela cells; assay type: cell-based, human
Procedure: as §1, §2, §3

[5] = Hela cells, 1-10 μM for 48 hours, or 10 μM for 48 and 72 hours

| SMILES | SAMD9 expression (SAMD9 [1]; HeLa cells, 5 μM, 24 hours, relative to DMSO) | clinical and histological psoriasiform phenotype (human psoriatic skin) | epidermal thickness (human psoriatic skin) | inflammation index (human psoriatic skin) | keratinocyte proliferation (Ki67) (human psoriatic skin) | epidermal thickness [2] | index of proliferation (Ki67) [2] | SAMD9 expression, dose dependence (SAMD9 [3]; 1 μM, 2 μM, 5 μM and 10 μM) | SAMD9 expression (SAMD9 [3]; 5 μM, 24 hours, relative to DMSO) | expression of genes of psoriasis related pathways (HeLa cells; enrichment by hypergeometric distribution) | number of genes downregulated (HeLa cells; vs DMSO, FDR<0.01) | number of genes upregulated (HeLa cells; vs DMSO, FDR<0.01) | SAMD9 expression (SAMD9 [4]) | EGR1 expression (EGR1; 10 μM, 24, 48 and 72 hours, result sentence prints primary fibroblast cells, method Hela cells) | SAMD9 expression (SAMD9 [1]; [5]) | EGR1 expression (EGR1; [5]) |
| --- | --- | --- | --- | --- | --- | --- | --- | --- | --- | --- | --- | --- | --- | --- | --- | --- |
| CC[C@@]1(O)C(=O)OCc2c1cc1n(c2=O)Cc2cc3ccccc3nc2-1 [CPT, Camptothecin] | significant induction of SAMD9 expression | significant clinical and histological attenuation of the psoriasiform phenotype | significant decrease | significant decrease | significant decrease | decrease in epidermal thickness | decrease | up-regulate SAMD9 expression in a dose dependent manner | significant induction of SAMD9 expression | significant turnover in expression of many genes belongs to psoriasis related pathways | 1192 | 1664 | significant induction of SAMD9 expression | significantly down-regulated EGR1 expression | – | – |
| CCc1c2c(nc3ccc(OC(=O)N4CCC(N5CCCCC5)CC4)cc13)-c1cc3c(c(=O)n1C2)COC(=O)[C@]3(O)CC [CPT-11, Irinotecan] | – | significant clinical and histological attenuation of the psoriasiform phenotype | significant decrease | significant decrease | significant decrease | – | – | – | – | – | – | – | – | – | substantial induction of SAMD9 expression | substantial down-regulation of EGR1 |
